± gives the standard deviation of the averaged measurements.
Legend:
LENVATINIB = compound: COc1cc2nccc(Oc3ccc(NC(=O)NC4CC4)c(Cl)c3)c2cc1C(N)=O [LENVATINIB]; assay: surviving fraction relative to DMSO-only wells; higher = less growth inhibition; conditions: exposure time: 5 days
Outline: (§1)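 At 250–500 cells per well in 384-well plates, log-phase tumour cell lines were seeded and, 24 hours on, exposed continuously for five days to inhibitors at 0.5, 1, 5, 10, 50, 100, 500 and 1000 nM. Viability readout was CellTiter-Glo luminescence, reported as surviving fraction normalised to the median of DMSO-only wells.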

BEZ-235 = compound: Cn1c(=O)n(-c2ccc(C(C)(C)C#N)cc2)c2c3cc(-c4cnc5ccccc5c4)ccc3ncc21 [BEZ-235]; assay: as above; conditions: exposure time: 5 days
Outline: as §1

Test System | surviving fraction (LENVATINIB; 0.5 nM) | surviving fraction (LENVATINIB; 1 nM) | surviving fraction (LENVATINIB; 5 nM) | surviving fraction (LENVATINIB; 10 nM) | surviving fraction (LENVATINIB; 50 nM) | surviving fraction (LENVATINIB; 100 nM) | surviving fraction (LENVATINIB; 500 nM) | surviving fraction (LENVATINIB; 1000 nM) | surviving fraction (BEZ-235; 0.5 nM) | surviving fraction (BEZ-235; 1 nM) | surviving fraction (BEZ-235; 5 nM) | surviving fraction (BEZ-235; 10 nM) | surviving fraction (BEZ-235; 50 nM) | surviving fraction (BEZ-235; 100 nM) | surviving fraction (BEZ-235; 500 nM) | surviving fraction (BEZ-235; 1000 nM)
SG27 HEADNECK | 1.15 ± 0.18 | 1.11 ± 0.028 | 1.12 ± 0.093 | 1.1 ± 0.052 | 1.04 ± 0.21 | 0.985 ± 0.13 | 0.928 ± 0.025 | 0.957 ± 0.055 | 0.989 ± 0.032 | 1.06 ± 0.041 | 0.888 ± 0.063 | 1.04 ± 0.049 | 0.91 ± 0.084 | 0.908 ± 0.065 | 0.717 ± 0.061 | 0.611 ± 0.04
MG63 BONE | 1.02 ± 0.075 | 1.03 ± 0.06 | 1.08 ± 0.065 | 0.999 ± 0.032 | 0.965 ± 0.061 | 0.865 ± 0.065 | 0.666 ± 0.059 | 0.584 ± 0.029 | 1.04 ± 0.071 | 1.03 ± 0.027 | 1.06 ± 0.067 | 1.03 ± 0.052 | 0.582 ± 0.026 | 0.45 ± 0.024 | 0.17 ± 0.014 | 0.143 ± 0.011
SCC36 HEADNECK | 1.06 ± 0.041 | 1.12 ± 0.063 | 1.12 ± 0.18 | 1.21 ± 0.064 | 1.18 ± 0.044 | 1.08 ± 0.036 | 1.01 ± 0.044 | 1.05 ± 0.025 | 1 ± 0.15 | 1.05 ± 0.043 | 1.12 ± 0.048 | 1.16 ± 0.074 | 1.11 ± 0.08 | 0.966 ± 0.08 | 0.497 ± 0.022 | 0.352 ± 0.015
MDAMB453 BREAST | 1.11 ± 0.035 | 1.11 ± 0.068 | 1.12 ± 0.019 | 1.13 ± 0.043 | 1.12 ± 0.037 | 1.15 ± 0.049 | 0.663 ± 0.016 | 0.52 ± 0.035 | 1.05 ± 0.066 | 1.05 ± 0.022 | 1.09 ± 0.015 | 1.05 ± 0.057 | 0.574 ± 0.046 | 0.359 ± 0.025 | 0.197 ± 0.011 | 0.169 ± 0.012
HCC1395 BREAST | 0.937 ± 0.018 | 0.948 ± 0.079 | 0.932 ± 0.05 | 1.03 ± 0.058 | 1 ± 0.11 | 1.03 ± 0.045 | 0.999 ± 0.098 | 0.845 ± 0.075 | 1.03 ± 0.12 | 0.967 ± 0.11 | 1.14 ± 0.095 | 1.09 ± 0.037 | 0.988 ± 0.12 | 1 ± 0.13 | 0.788 ± 0.12 | 0.759 ± 0.17
HOSMNG BONE | 1.02 ± 0.036 | 1.03 ± 0.023 | 0.964 ± 0.06 | 1.02 ± 0.043 | 1.11 ± 0.033 | 1.07 ± 0.036 | 1.09 ± 0.067 | 1.05 ± 0.091 | 0.956 ± 0.014 | 0.96 ± 0.041 | 0.929 ± 0.022 | 0.958 ± 0.05 | 0.917 ± 0.044 | 0.772 ± 0.035 | 0.426 ± 0.0052 | 0.297 ± 0.012
SG32 HEADNECK | 1.21 ± 0.15 | 1.38 ± 0.028 | 1.15 ± 0.14 | 1.13 ± 0.2 | 1.05 ± 0.15 | 1.12 ± 0.2 | 1.41 ± 0.35 | 1.15 ± 0.12 | 1.1 ± 0.18 | 1.03 ± 0.1 | 1.42 ± 0.26 | 1.25 ± 0.13 | 0.861 ± 0.061 | 0.497 ± 0.083 | 0.255 ± 0.013 | 0.176 ± 0.026
MFM223 BREAST | 1.16 ± 0.069 | 1.08 ± 0.12 | 1.09 ± 0.077 | 1.12 ± 0.024 | 1.06 ± 0.13 | 0.813 ± 0.053 | 0.336 ± 0.02 | 0.29 ± 0.014 | 1.12 ± 0.069 | 1.13 ± 0.043 | 1.11 ± 0.06 | 1.15 ± 0.079 | 0.932 ± 0.071 | 0.588 ± 0.018 | 0.206 ± 0.018 | 0.179 ± 0.0092
MDAMB134 BREAST | 1.12 ± 0.079 | 1.08 ± 0.044 | 1.16 ± 0.069 | 1.09 ± 0.011 | 1.29 ± 0.13 | 1.32 ± 0.14 | 0.972 ± 0.15 | 1.05 ± 0.057 | 1.08 ± 0.058 | 1.17 ± 0.033 | 1.11 ± 0.024 | 1.09 ± 0.021 | 0.881 ± 0.025 | 0.83 ± 0.083 | 0.474 ± 0.15 | 0.476 ± 0.03
H23 LUNG | 1.03 ± 0.054 | 1.05 ± 0.06 | 1.06 ± 0.079 | 1.05 ± 0.08 | 1.05 ± 0.049 | 1.12 ± 0.074 | 1.15 ± 0.068 | 1.17 ± 0.069 | 1.02 ± 0.051 | 1.04 ± 0.081 | 0.961 ± 0.057 | 0.903 ± 0.042 | 0.496 ± 0.055 | 0.382 ± 0.033 | 0.22 ± 0.015 | 0.194 ± 0.0072

From the supplement of paper PMC6045584
